In brackets after ≈: the same amount, converted by molar mass. One block for each compound: values may come before it. Activity calls are given as the source filed them. No cut-off for these calls is given here.
Experiments:
[1] = Antioxidant activity assessed as ferric reducing ability; format: functional
[2] = Antioxidant activity assessed as trolox equivalent antioxidant capacity; format: functional
K562 = experiment: Antiproliferative activity against human K562 cells assessed as reduction in cell viability incubated for 2 days by MTT assay; format: functional, cell-based; conditions: K562, 48 h
RAW264.7 [3] = experiment: Antiinflammatory activity against mouse RAW264.7 cells assessed as reduction in TNFalpha level at 2.7 ug/ml; format: functional, cell-based
KG-1a = experiment: Antiproliferative activity against human KG1a cells assessed as reduction in cell viability incubated for 2 days by MTT assay; format: functional, cell-based; conditions: 48 h
[4] = Antioxidant activity assessed as DPPH radical scavenging activity; format: functional; conditions: dose or concentration not given here
RAW264.7 [5] = experiment: Antiinflammatory activity against mouse RAW264.7 cells assessed as reduction in IL6 level at 2.7 ug/ml; format: functional, cell-based
[6] = Cytotoxicity against mouse RAW264.7 cells assessed as reduction in cell viability incubated for 2 days by MTT assay; format: cell-based
EOL1 = experiment: Antiproliferative activity against human EOL1 cells incubated for 2 days by MTT assay; format: functional, cell-based; conditions: EOL1, 48 h
[7] = Cytotoxicity against mouse RAW264.7 cells assessed as cell viability at 2.7 ug/ml incubated for 2 days by MTT assay relative to control; format: cell-based; conditions: read-out: Activity
HL-60 = experiment: Antiproliferative activity against human HL60 cells incubated for 2 days by MTT assay; format: functional, cell-based; conditions: HL-60, 48 h
PBMC = experiment: Cytotoxicity against human PBMC assessed as reduction in cell viability incubated for 2 days by MTT assay; format: cell-based; conditions: 48 h
RAW264.7 [8] = experiment: Antiinflammatory activity against mouse RAW264.7 cells assessed as reduction in IL6 level; format: functional, cell-based
RAW264.7 [9] = experiment: Antiinflammatory activity against mouse RAW264.7 cells assessed as reduction in TNFalpha level; format: functional, cell-based

Compound: O=C1O[C@H]([C@@H](O)CO)C(O)=C1O
- Activity [1]: 23.7 µM
- Activity [2]: 1.7 µM

Compound: C=C(CC[C@@H](C)[C@H]1CC[C@@]2(C)[C@@H]3CC[C@H]4C(C)(C)[C@@H](O)CC[C@]4(C)C3=CC[C@]12C)C(C)C
- IC50 (K562): > 100 µg/mL
- Activity [1]: 0.2 µM
- inhibition (RAW264.7 [3]): Active
- IC50 (KG-1a): > 100 µg/mL
- Activity [2]: 0.1 µM
- inhibition [4]: 8.6%
- inhibition (RAW264.7 [5]): Active
- IC20 at 48 h [6]: 2.7 µg/mL (≈ 6.13 µM)
- IC50 (EOL1): 36.3 µg/mL (≈ 82.4 µM)
- viability at 48 h, 2.7 ug/ml [7]: 80%
- IC50 (HL-60): 53.4 µg/mL (≈ 121 µM)
- IC50 (PBMC): > 100 µg/mL

Compound: C[C@@H]1C[C@H]2[C@@H]3CCC4=CC(=O)C=C[C@]4(C)[C@@]3(F)[C@@H](O)C[C@]2(C)[C@@]1(O)C(=O)CO
- inhibition (RAW264.7 [8]): Dose-dependent effect
- inhibition (RAW264.7 [9]): Dose-dependent effect

Second part, the compound after the results:

- IC50 (K562): 45.8 µg/mL (≈ 154 µM)
Compound: C/C(=C\CO)CCC[C@H](C)CCC[C@H](C)CCCC(C)C [TRANS-PHYTOL]

- IC50 (HL-60): 0.008 µg/mL (≈ 0.0097 µM)
Compound: CC[C@]1(O)C[C@H]2CN(CCc3c([nH]c4ccccc34)[C@@](C(=O)OC)(c3cc4c(cc3OC)N(C=O)[C@H]3[C@@](O)(C(=O)OC)[C@H](OC(C)=O)[C@]5(CC)C=CCN6CC[C@]43[C@@H]65)C2)C1 [VINCRISTINE]

- IC50 (K562): 82.8 µg/mL (≈ 194 µM)
Compound: C=C(C)[C@@H]1CC[C@]2(C)CC[C@]3(C)[C@H](CC[C@@H]4[C@@]5(C)CC[C@H](O)C(C)(C)[C@@H]5CC[C@]43C)[C@@H]12 [LUPEOL]
